Data taken from patent US5126336A, “Antibiotic C-3 catechol-substituted cephalosporin compounds, compositions and method of use thereof” (Bristol-Myers Squibb Company, priority 1990, dated 1992).
≈ marks a conversion by molar mass, not a printed value.

Tests used:
Experiment in all cases: MIC, agar dilution
Type in all cases: cell-based
B. subtilis PCI 219 = conditions: Bacillus subtilis, PCI219, Mueller-Hinton agar pH 7.2, 32° C., 18 hr, 10^6 cells/ml
Protocol: (§1) Minimum inhibitory concentrations (MICs) of the present series of cephalosporins were determined against 32 strains of test organisms by two-fold serial agar dilution method in Mueller-Hinton agar. Geometric means of MICs were calculated against six groups of the test organisms which are classified as follows and summarized in Table 1.
(§2) Medium; MuellerHinton agar (pH = 7.2)
(§3) Incubation temperature: 32° C., 18 hr
(§4) Inoculum size; 10^6 cells/ml

C. freundii GN 7391 = conditions: Citrobacter freundii, GN7391, Mueller-Hinton agar pH 7.2, 32° C., 18 hr, 10^6 cells/ml
Protocol: as §1, §2, §3, §4

C. terrigena IFO 12685 = conditions: Mueller-Hinton agar pH 7.2, 32° C., 18 hr, 10^6 cells/ml
Protocol: as §1, §2, §3, §4

E. cloacae IPM-12 = conditions: Enterobacter cloacae, IPM12, Mueller-Hinton agar pH 7.2, 32° C., 18 hr, 10^6 cells/ml
Protocol: as §1, §2, §3, §4

E. coli 255 = conditions: Escherichia coli, Mueller-Hinton agar pH 7.2, 32° C., 18 hr, 10^6 cells/ml
Protocol: as §1, §2, §3, §4

E. faecalis A9808 = conditions: Enterococcus faecalis, Mueller-Hinton agar pH 7.2, 32° C., 18 hr, 10^6 cells/ml
Protocol: as §1, §2, §3, §4

E. faecium A24817 = conditions: Enterococcus faecium, Mueller-Hinton agar pH 7.2, 32° C., 18 hr, 10^6 cells/ml
Protocol: as §1, §2, §3, §4

K. pneumoniae PCI 602 = conditions: Klebsiella pneumoniae, PCI602, Mueller-Hinton agar pH 7.2, 32° C., 18 hr, 10^6 cells/ml
Protocol: as §1, §2, §3, §4

M. luteus 1001 = conditions: Micrococcus luteus, Mueller-Hinton agar pH 7.2, 32° C., 18 hr, 10^6 cells/ml
Protocol: as §1, §2, §3, §4

M. morgani 1510/9 = conditions: Mueller-Hinton agar pH 7.2, 32° C., 18 hr, 10^6 cells/ml
Protocol: as §1, §2, §3, §4

M. morgani 1510 = conditions: Mueller-Hinton agar pH 7.2, 32° C., 18 hr, 10^6 cells/ml
Protocol: as §1, §2, §3, §4

P. aeruginosa A20599 = conditions: Pseudomonas aeruginosa, Mueller-Hinton agar pH 7.2, 32° C., 18 hr, 10^6 cells/ml
Protocol: as §1, §2, §3, §4

P. aeruginosa IPM-8 = conditions: Pseudomonas aeruginosa, IPM8, Mueller-Hinton agar pH 7.2, 32° C., 18 hr, 10^6 cells/ml
Protocol: as §1, §2, §3, §4

P. aeruginosa IPM-9 = conditions: Pseudomonas aeruginosa, IPM9, Mueller-Hinton agar pH 7.2, 32° C., 18 hr, 10^6 cells/ml
Protocol: as §1, §2, §3, §4

P. aeruginosa KKA 19 = conditions: Pseudomonas aeruginosa, KKA19, Mueller-Hinton agar pH 7.2, 32° C., 18 hr, 10^6 cells/ml
Protocol: as §1, §2, §3, §4

P. cepacia A21213 = conditions: Burkholderia cepacia, Mueller-Hinton agar pH 7.2, 32° C., 18 hr, 10^6 cells/ml
Protocol: as §1, §2, §3, §4

P. cepacia No. 651 = conditions: Burkholderia cepacia, Mueller-Hinton agar pH 7.2, 32° C., 18 hr, 10^6 cells/ml
Protocol: as §1, §2, §3, §4

P. mirabilis IFO-2849 = conditions: Proteus mirabilis, IFO2849, Mueller-Hinton agar pH 7.2, 32° C., 18 hr, 10^6 cells/ml
Protocol: as §1, §2, §3, §4

P. rettgeri IPM-14 = conditions: Providencia rettgeri, IPM14, Mueller-Hinton agar pH 7.2, 32° C., 18 hr, 10^6 cells/ml
Protocol: as §1, §2, §3, §4

P. vulgaris IPM-13 = conditions: Proteus vulgaris, IPM13, Mueller-Hinton agar pH 7.2, 32° C., 18 hr, 10^6 cells/ml
Protocol: as §1, §2, §3, §4

S. aureus 209P = conditions: Staphylococcus aureus; S. aureus 209P; Mueller-Hinton agar pH 7.2; 32° C., 18 hr; 10^6 cells/ml; read-out: MIC
Protocol: as §1, §2, §3, §4

S. aureus 4-1015 (MRSA) = conditions: Staphylococcus aureus, Mueller-Hinton agar pH 7.2, 32° C., 18 hr, 10^6 cells/ml
Protocol: as §1, §2, §3, §4

S. aureus IPM-24 (MRSA) = conditions: Staphylococcus aureus, Mueller-Hinton agar pH 7.2, 32° C., 18 hr, 10^6 cells/ml
Protocol: as §1, §2, §3, §4

S. epidermidis 11-1230 = conditions: Staphylococcus epidermidis, 111230, Mueller-Hinton agar pH 7.2, 32° C., 18 hr, 10^6 cells/ml
Protocol: as §1, §2, §3, §4

S. marcescens IPM-15 = conditions: Serratia marcescens, IPM15, Mueller-Hinton agar pH 7.2, 32° C., 18 hr, 10^6 cells/ml
Protocol: as §1, §2, §3, §4

S. marcescens IPM-16 = conditions: Serratia marcescens, IPM16, Mueller-Hinton agar pH 7.2, 32° C., 18 hr, 10^6 cells/ml
Protocol: as §1, §2, §3, §4

X. maltophilia GN 12873 = conditions: Stenotrophomonas maltophilia, GN12873, Mueller-Hinton agar pH 7.2, 32° C., 18 hr, 10^6 cells/ml
Protocol: as §1, §2, §3, §4

X. maltophilia No. 661 = conditions: Stenotrophomonas maltophilia, Mueller-Hinton agar pH 7.2, 32° C., 18 hr, 10^6 cells/ml
Protocol: as §1, §2, §3, §4

E. coli Juhl A15119 = conditions: Escherichia coli, JUHLA15119; E. coli Juhl A15119; Mueller-Hinton agar pH 7.2; 32° C., 18 hr; 10^6 cells/ml; read-out: MIC
Protocol: as §1
(§5) In vivo antibacterial activity was determined against three bacterial infections (S. aureus Smith, E. coli Juhl and P. aeruginosa A9843A) by intramuscular administration to mice just after the bacterial challenge. PD50 values are summarized in Table 3 in comparsion with the MIC values against the corresponding organisms.
as §2, §3, §4

P. aeruginosa A9843A = conditions: Pseudomonas aeruginosa, A9843A, 18 h, pH 7.2
Protocol: as §1, §5, §2, §3, §4

S. aureus Smith = conditions: Staphylococcus aureus; S. aureus Smith; Mueller-Hinton agar pH 7.2; 32° C., 18 hr; 10^6 cells/ml; read-out: MIC
Protocol: as §1, §5, §2, §3, §4

`CO/N=C(\C(=O)NC1C(=O)N2C(C(=O)O)=C(/C=C/Cn3cnc4cc(O)c(O)cc43)CS[C@H]12)c1csc(N)n1` (stereo partly shown) [Iu, 7-[(Z)-2-(2-aminothiazol-4-yl)-2-methoxyiminoacetamido]-3-[(E)-3-(5,6-dihydroxybenzimidazol-1-yl)-1-propen-1-yl]-3-cephem-4-carboxylic acid] was tested, and the MIC (B. subtilis PCI 219) was 3.1 µg/mL (≈ 5.42 µM), the MIC (C. freundii GN 7391) was 100 µg/mL (≈ 175 µM) and the MIC (C. terrigena IFO 12685) was 1.6 µg/mL (≈ 2.8 µM). The MIC (E. cloacae IPM-12) was > 100 µg/mL, the MIC (E. coli 255) was 0.8 µg/mL (≈ 1.4 µM) and the MIC (E. faecalis A9808) was 100 µg/mL (≈ 175 µM). The MIC (E. faecium A24817) was > 100 µg/mL, the MIC (K. pneumoniae PCI 602) was 0.05 µg/mL (≈ 0.0875 µM) and the MIC (M. luteus 1001) was 0.8 µg/mL (≈ 1.4 µM). The MIC (M. morgani 1510/9) was 0.4 µg/mL (≈ 0.7 µM), the MIC (M. morgani 1510) was 25 µg/mL (≈ 43.7 µM) and the MIC (P. aeruginosa A20599) was 6.3 µg/mL (≈ 11 µM). The MIC (P. aeruginosa IPM-8) was 25 µg/mL (≈ 43.7 µM), the MIC (P. aeruginosa IPM-9) was 100 µg/mL (≈ 175 µM) and the MIC (P. aeruginosa KKA 19) was 100 µg/mL (≈ 175 µM). The MIC (P. cepacia A21213) was > 100 µg/mL, the MIC (P. cepacia No. 651) was > 100 µg/mL and the MIC (P. mirabilis IFO-2849) was 0.1 µg/mL (≈ 0.175 µM). The MIC (P. rettgeri IPM-14) was 0.8 µg/mL (≈ 1.4 µM), the MIC (P. vulgaris IPM-13) was > 100 µg/mL and the MIC (S. aureus 209P) was 6.3 µg/mL (≈ 11 µM). The MIC (S. aureus 4-1015 (MRSA)) was 50 µg/mL (≈ 87.5 µM), the MIC (S. aureus IPM-24 (MRSA)) was > 100 µg/mL and the MIC (S. epidermidis 11-1230) was 50 µg/mL (≈ 87.5 µM). The MIC (S. marcescens IPM-15) was > 100 µg/mL, the MIC (S. marcescens IPM-16) was > 100 µg/mL and the MIC (X. maltophilia GN 12873) was > 100 µg/mL. The MIC (X. maltophilia No. 661) was > 100 µg/mL, the MIC (E. coli Juhl A15119) was 0.2 µg/mL (≈ 0.35 µM) and the MIC (P. aeruginosa A9843A) was 6.3 µg/mL (≈ 11 µM). For the same compound, the MIC (S. aureus Smith) was 6.3 µg/mL (≈ 11 µM).
